In one data set the test system is Murine CMV strain Smith. Description: MCMV plaque reduction assay in MEF cells. The class given is cell-based, murine cytomegalovirus. To be noted: primary screen. The method, then: (§1) Murine CMV strain Smith was obtained from Earl Kern and assayed in mouse embryonic fibroblast cells (MEF) immortalized by telomerization. Guinea pig CMV strain 22122 was obtained from the ATCC and assayed in primary guinea pig lung cells (GPL). Both MEF and GPL cells were prepared at the UAB tissue procurement facility with IRB approval as previously described.
(§2) Plaque reduction assays for MCMV, GPCMV were performed on monolayers of GPL (GPCMV) or MEF (MCMV) cells prepared in six-well plates and incubated at 37°C for 2d to allow the cells to reach confluency. Media was then aspirated from the wells and 0.2ml of virus was added to each of three wells to yield 20–30 plaques in each well. The virus was allowed to adsorb to the cells for 1h and the plates were agitated every 15min. Compounds were diluted in assay media consisting of MEM with Earl’s salts supplemented with 2% FBS, L-glutamine, penicillin, and gentamycin. Solutions ranging from 0.0032–10μM (primary) or 0.032–100μM (secondary) were added to triplicate wells and the plates were incubated for various times, depending on the virus used. For MCMV and GPCMV, the cell monolayer was stained with 1% neutral red solution for 4h at which time the stain was aspirated and cells were washed with PBS. […]
A general note: Plaque reduction counts the foci of infection that form in a cell layer.

Another data set deals with Rev-GFP fusion. Also noted: method as in PMID 3025240. The conditions noted are these: read-out: EC50, forced nuclear retention of Rev-GFP fusion; cited from earlier work.
The next data set concerns Human CMV strain AD169. Description: HCMV yield reduction assay in HFF cells. The class given is cell-based, human cytomegalovirus. The conditions noted are these: Human betaherpesvirus 5, AD169, HFF. On the procedure: (§3) Human CMV strain AD169 was obtained from ATCC and assayed in human foreskin fibroblast cells (HFF). HFF cells were prepared at the University of Alabama at Birmingham (UAB) tissue procurement facility with IRB approval as previously described. Yield reduction assays for HCMV were performed on monolayers of HFF cells prepared in 96-well plates and incubated at 37°C for 1d to allow the cells to reach confluency. Media was then aspirated from the wells were infected at a high multiplicity of infection (MOI). At 1h following infection, the inocula were removed and the monolayers rinsed with fresh media. Compounds were then diluted in assay media consisting of MEM with Earl’s salts supplemented with 2% FBS, L-glutamine, penicillin, and gentamycin. Solutions ranging from 0.0032–10μM in primary assay and 0.032–100μM in secondary assay were added to the wells and the plates were incubated for various times, depending on the virus used and represents the length of a single replication cycle for the virus. A duplicate set of dilutions were also performed but remained uninfected to serve as a cytotoxicity control and received equal compound exposure. Supernatants from each of the infected wells were subsequently titered in a TCID50 assay to quantify the progeny virus.

Data set [1] relates to Guinea pig CMV strain 22122. In words: GPCMV plaque reduction assay in GPL cells. The class given is cell-based, guinea pig cytomegalovirus. The conditions noted are these: in Cavia porcellus, primary screen. On the procedure:
as §1, §2

The subject of the next data set is HPV-18. In words: HPV-18 DNA amplification in organotypic raft culture of PHKs (qPCR). The class given is cell-based, human papillomavirus. On the procedure:
HPV-11 and -18 were tested in HEK293 cells and primary human keratinocytes (PHK), respectively. PHKs were isolated from neonatal foreskins following circumcision according to IRB-approved protocols at UAB. They were grown in keratinocyte serum-free medium (Life Technologies) with mitomycin C-treated J2 feeder cells (Swiss 3T3 J2 fibroblasts; Elaine Fuchs, Rockefeller University). HEK 293 cells were maintained under standard conditions.
For secondary assays, the amplification of HPV-18 DNA was determined in an organotypic squamous epithelial raft culture of PHKs. Whole genomic HPV-18 plasmids were generated in plasmid-transfected PHKs and developed into organotypic cultures as described. Based on the results of a 3-day toxicity assay, concentrations of test compound were added to a subset of raft cultures from day 6 through day 13 when the cultures were harvested. Similarly treated normal PHK raft cultures were also prepared to assess toxicity of uninfected tissue. One set of cultures were fixed in 10% buffered formalin, paraffin embedded and sectioned for in situ assay. Sections were stained with hematoxylin and eosin. Total DNA harvest from unfixed raft cultures was used to determine the HPV-18 copy number/per cell by qPCR. Inhibition was expressed as % of viral DNA copies relative to the untreated cultures.
For orientation: In qPCR the cycle at which signal appears reflects the starting amount.

In another data set the test system is HIV. Also noted: method as in PMID 3025240. To be noted: PBMCs from healthy donors; read-out: EC50, anti-HIV activity; cited from earlier work.
Data set [2] can be described thus: Cytotoxicity in GPL cells. The class given is cell-based. To be noted: primary guinea pig lung cells (GPL), Guinea pig CMV primary screen. The method, then: Cytotoxicity assays: Concurrent assessment of cytotoxicity was also performed for each study in the same cell line and with the same compound exposure. For HCMV cytotoxicity assay was determined via neutral red uptake assay and was conducted as reported previously in HFF cells. Optical densities were determined at 550nm. Cytotoxicity assay was performed in a manner analogous to HCMV (see above).

Data set [3] can be described thus: Cytotoxicity in HFF cells, concurrent with HCMV assays. To be noted: human, human foreskin fibroblast cells (HFF). The class given is cell-based. The method, then:
Cytotoxicity assays: Concurrent assessment of cytotoxicity was also performed for each study in the same cell line and with the same compound exposure.
For HCMV cytotoxicity assay was determined via neutral red uptake assay and was conducted as reported previously in HFF cells. Optical densities were determined at 550nm.
as §3, with “Yield reduction” for “Human CMV strain AD169 was obtained from ATCC and assayed in human foreskin fibroblast cells (HFF). HFF cells were prepared at the University of Alabama at Birmingham (UAB) tissue procurement facility with IRB approval as previously described. Yield reduction”, “progeny virus. […]” for “progeny virus.”

The source of these data is PMC6192554, “In vitro toxicity and efficacy of verdinexor, an exportin 1 inhibitor, on opportunistic viruses affecting immunocompromised individuals” (PLoS ONE, 2018).

Molecules are shown by their SMILES.

In the case of `O=C(C=Cn1cnc(-c2cc(C(F)(F)F)cc(C(F)(F)F)c2)n1)NNc1ccccn1` (stereo in doubt) [verdinexor, (E)-3-[3-[3,5-bis(trifluoromethyl)phenyl]-1,2,4-triazol-1-yl]-N'-pyridin-2-ylprop-2-enehydrazide], the EC50 (usually the concentration at which the effect is half-maximal) with Murine CMV strain Smith is 190 nM; with Rev-GFP fusion, 160 nM; in the data set with Human CMV strain AD169 (primary screen) it was 190 nM; with Human CMV strain AD169 (secondary screen) it was 2500 nM; in data set [1] it was 190 nM; in the data set on HPV-18 (Human papillomavirus), 8300 nM. For the same molecule, the EC50 with HIV was 116 ± 54 nM. Also, in the data set with HPV-18 (secondary screen, PHKs), the “efficacy against HPV-18” value is reported as “did not show efficacy”. For the same molecule, the CC50 (as a rule, the concentration that lowers cell viability or growth by half) is 2000 nM in data set [2], 1760 nM in data set [3] (HCMV primary screen) and 73300 nM in data set [3] (HCMV secondary screen).
